The target in series [1] is T1, human HDAC1 complex (Homo sapiens, UniProt Q13547).
T1 construct: Flag; made in house
Description: HDAC1-Flag in vitro deacetylation assay. In kind it is biochemical. On the procedure: Novel compounds were tested for their ability to inhibit histone deacetylase, subtype 1 (HDAC1) using an in vitro deacetylation assay. The enzyme source for this assay was an epitope-tagged human HDAC1 complex immuno-purified from stably expressing mammalian cells. The substrate consisted of a commercial product containing an acetylated lysine side chain (BIOMOL Research Laboratories, Inc., Plymouth Meeting, Pa.). Upon deacetylation of the substrate by incubation with the purified HDAC1 complex, a fluorophore is produced that is directly proportional to the level of deacetylation. Using a substrate concentration at the Km for the enzyme preparation, the deacetylation assay was performed in the presence of increasing concentrations of novel compounds to semi-quantitatively determine the concentration of compound required for 50% inhibition (IC50) of the deacetylation reaction.

In series [2] the test system is HCT-116 cells. Nature of the series: ATP (Vialight) cell proliferation assay, HCT-116. Type of series: cell-based. To be noted: Homo sapiens. As to the method:
(§1) The novel compounds of the present invention were tested for their ability to inhibit proliferation of the human cervical cancer (HeLa) and colon carcinoma (HCT116) cells.
(§2) In this assay, also referred to as the Vialight Assay, cellular ATP levels are measured as a means of quantifying cellular proliferation. This assay makes use of a bioluminescent method from Cambrex (ViaLight PLUS, cat. #LT07-121). In the presence of ATP, luciferase converts luciferin to oxyluciferin and light. The amount of light produced (emission at 565 nm) is measured and correlates with a relative amount of proliferation. Human cervical cancer (HeLa) or colon carcinoma (HCT116) cells were incubated with vehicle or increasing concentrations of compound for 48, 72 or 96 hours. Cell proliferation was quantified by adding the cell lysis reagent (provided in the Vialight assay kit) directly to culture wells, followed by addition of the ATP-monitoring reagent (containing luciferase/luciferin). The amount of light produced is then measured (emission at 565 nm). The quantity of light produced, as measured by […], is directly proportional to the number of living cells in culture.

Series [3] concerns the target Cyp3A4 (Homo sapiens, UniProt P08684). Nature of the series: Cyp inhibition, Cyp3A4. Type of series: in vitro ADME. To be noted: read-out: Percent Cyp inhibition, Cyp3A4.
For series [4], the target named is MK-499 binding (Homo sapiens, UniProt Q12809). Nature of the series: MK-499 binding. The following applies: read-out: inflection point for MK-499 binding.
Series [5] concerns the target Cyp 2D6 (Homo sapiens, UniProt P10635). Description: Cyp inhibition, Cyp2D6. Type of series: in vitro ADME. To be noted: read-out: Percent Cyp inhibition, 2D6.
Series [6] concerns the target Cyp 2C9 (Homo sapiens, UniProt P11712). Description: Cyp inhibition, Cyp2C9. Type of series: in vitro ADME. To be noted: read-out: Percent Cyp inhibition, 2C9.
Series [7] deals with human cervical cancer (HeLa) or colon carcinoma (HCT116) cells. Nature of the series: Prol-72 hr, ATP (Vialight) proliferation assay, cell line not given. In kind it is cell-based. The following applies: Table 2, IP = inflection point, cell line not stated. On the procedure:
as §1, §2

Setting [8] is: Table 2, IP = inflection point, read-out: HDAC1 IP*.
The mark [9] stands for this setting: Table 3, IP = inflection point, read-out: HDAC 1 IP*.

Where two headings read alike, the source gives them in different places.

Eleven compounds from patent publication US8461189B2, “Pyridyl derivatives as histone deacetylase inhibitors” (Merck Sharp & Dohme Corp., priority 2007, dated 2013) can be followed below.

What is called inhibition is the change of the read-out against control, counted positive when it falls.

Sequence of Cyp 2C9 (P11712 whole entry): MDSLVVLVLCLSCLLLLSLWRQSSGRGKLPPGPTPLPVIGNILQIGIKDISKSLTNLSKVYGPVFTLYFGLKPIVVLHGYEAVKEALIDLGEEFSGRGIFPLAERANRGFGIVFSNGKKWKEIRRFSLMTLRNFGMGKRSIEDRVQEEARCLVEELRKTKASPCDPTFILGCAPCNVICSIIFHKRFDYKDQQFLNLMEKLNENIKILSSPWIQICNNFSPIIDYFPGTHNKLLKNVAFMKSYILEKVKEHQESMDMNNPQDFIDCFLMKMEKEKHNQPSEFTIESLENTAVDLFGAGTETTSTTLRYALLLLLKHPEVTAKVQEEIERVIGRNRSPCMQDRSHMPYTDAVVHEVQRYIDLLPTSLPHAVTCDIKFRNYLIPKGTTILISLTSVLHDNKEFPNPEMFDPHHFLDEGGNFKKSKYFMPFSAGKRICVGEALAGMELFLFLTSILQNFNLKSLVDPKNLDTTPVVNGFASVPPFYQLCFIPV
Sequence of Cyp 2D6 (P10635 whole entry): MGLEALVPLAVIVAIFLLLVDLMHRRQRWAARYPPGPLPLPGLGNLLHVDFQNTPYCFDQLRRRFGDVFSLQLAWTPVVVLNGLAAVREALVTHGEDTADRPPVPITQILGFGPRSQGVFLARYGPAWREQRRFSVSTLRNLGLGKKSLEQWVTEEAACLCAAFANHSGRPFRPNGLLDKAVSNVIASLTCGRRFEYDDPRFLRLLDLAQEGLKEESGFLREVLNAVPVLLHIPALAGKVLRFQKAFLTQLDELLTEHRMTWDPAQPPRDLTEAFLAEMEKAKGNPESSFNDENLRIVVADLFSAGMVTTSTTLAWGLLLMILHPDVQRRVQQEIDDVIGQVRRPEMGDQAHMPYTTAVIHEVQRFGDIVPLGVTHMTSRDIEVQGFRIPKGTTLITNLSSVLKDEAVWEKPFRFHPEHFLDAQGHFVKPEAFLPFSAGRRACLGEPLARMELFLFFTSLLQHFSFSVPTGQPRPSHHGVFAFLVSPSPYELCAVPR
Sequence of Cyp3A4 (P08684 whole entry, species assumed): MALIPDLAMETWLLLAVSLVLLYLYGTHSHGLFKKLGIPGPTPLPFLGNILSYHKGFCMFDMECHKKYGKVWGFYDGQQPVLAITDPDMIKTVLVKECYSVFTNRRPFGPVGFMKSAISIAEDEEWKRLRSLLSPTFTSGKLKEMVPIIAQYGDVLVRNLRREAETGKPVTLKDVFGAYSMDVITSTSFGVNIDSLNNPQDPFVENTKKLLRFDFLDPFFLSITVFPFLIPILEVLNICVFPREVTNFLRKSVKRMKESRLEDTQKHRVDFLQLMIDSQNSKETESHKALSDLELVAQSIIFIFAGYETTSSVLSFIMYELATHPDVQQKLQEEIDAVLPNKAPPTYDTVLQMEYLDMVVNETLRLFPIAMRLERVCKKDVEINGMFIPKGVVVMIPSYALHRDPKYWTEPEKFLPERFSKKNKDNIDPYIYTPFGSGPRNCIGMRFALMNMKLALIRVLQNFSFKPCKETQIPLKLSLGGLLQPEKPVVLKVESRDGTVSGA
Sequence of MK-499 binding (Q12809 whole entry): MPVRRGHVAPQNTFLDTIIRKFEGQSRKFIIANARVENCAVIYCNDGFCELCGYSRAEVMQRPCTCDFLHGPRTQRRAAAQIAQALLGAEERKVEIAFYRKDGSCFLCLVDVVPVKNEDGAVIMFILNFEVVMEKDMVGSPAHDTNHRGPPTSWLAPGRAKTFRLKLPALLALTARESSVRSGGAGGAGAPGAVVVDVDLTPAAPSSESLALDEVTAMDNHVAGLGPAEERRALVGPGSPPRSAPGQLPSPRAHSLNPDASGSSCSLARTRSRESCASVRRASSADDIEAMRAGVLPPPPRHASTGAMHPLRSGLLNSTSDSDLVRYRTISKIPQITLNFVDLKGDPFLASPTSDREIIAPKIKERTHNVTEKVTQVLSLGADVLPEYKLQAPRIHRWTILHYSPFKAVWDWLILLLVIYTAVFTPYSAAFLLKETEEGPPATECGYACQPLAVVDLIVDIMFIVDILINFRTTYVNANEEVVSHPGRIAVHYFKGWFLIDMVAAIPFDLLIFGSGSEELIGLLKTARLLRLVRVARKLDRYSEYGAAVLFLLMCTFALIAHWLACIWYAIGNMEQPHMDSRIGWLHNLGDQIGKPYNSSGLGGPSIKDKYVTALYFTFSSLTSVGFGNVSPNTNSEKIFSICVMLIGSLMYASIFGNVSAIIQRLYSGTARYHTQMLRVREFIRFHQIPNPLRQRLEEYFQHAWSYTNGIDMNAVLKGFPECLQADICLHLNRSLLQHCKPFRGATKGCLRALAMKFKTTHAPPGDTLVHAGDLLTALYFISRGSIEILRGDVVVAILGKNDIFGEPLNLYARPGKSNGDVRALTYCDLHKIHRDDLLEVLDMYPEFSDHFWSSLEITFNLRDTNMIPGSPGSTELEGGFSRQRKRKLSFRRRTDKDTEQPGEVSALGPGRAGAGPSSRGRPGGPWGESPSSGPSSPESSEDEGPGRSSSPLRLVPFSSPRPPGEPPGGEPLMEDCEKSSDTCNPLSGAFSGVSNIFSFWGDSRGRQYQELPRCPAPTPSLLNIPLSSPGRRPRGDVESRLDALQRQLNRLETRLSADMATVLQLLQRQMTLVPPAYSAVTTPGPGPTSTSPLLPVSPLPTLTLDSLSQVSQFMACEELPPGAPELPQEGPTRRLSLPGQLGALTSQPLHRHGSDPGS
T1 sequence (Q13547 whole entry, one chain of several): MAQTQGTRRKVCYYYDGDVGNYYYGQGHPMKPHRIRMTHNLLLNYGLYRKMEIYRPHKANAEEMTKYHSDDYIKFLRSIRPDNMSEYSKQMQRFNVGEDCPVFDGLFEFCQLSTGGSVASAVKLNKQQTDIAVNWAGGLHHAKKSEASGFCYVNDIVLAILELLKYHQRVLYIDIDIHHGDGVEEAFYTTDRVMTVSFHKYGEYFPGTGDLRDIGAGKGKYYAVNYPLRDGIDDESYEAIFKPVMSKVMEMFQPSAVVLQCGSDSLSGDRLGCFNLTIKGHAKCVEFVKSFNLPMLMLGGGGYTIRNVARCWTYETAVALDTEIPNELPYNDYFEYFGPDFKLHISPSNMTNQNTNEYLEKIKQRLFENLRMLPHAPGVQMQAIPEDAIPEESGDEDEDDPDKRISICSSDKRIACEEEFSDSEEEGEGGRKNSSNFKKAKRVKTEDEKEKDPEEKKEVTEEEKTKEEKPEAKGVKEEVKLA

Regarding `CC(=O)Nc1ccc(C(=O)Nc2nc(-c3ccccc3)ccc2N)cc1` [4-(Acetylamino)-N-(3-amino-6-phenylpyridin-2-yl)benzamide], the values for the IC50 in series [1] (read-out: in vitro HDAC1 IC50) and in series [2] were 0.086 µM and 2.05 µM, respectively.
As to `Nc1ccc(-c2ccccc2)nc1NC(=O)c1ccc(CNC(=O)OCc2ccccc2)cc1` [Benzyl(4-{[(3-amino-6-phenylpyridin-2-yl)amino]carbonyl}benzyl)carbamate], the inhibition at 10 µM in series [3] worked out at 7%; in series [5], 24%; in series [6] it was 25%. Also, the figures for the IC50 in series [4], in series [1] (read-out: in vitro HDAC1 IC50) and in series [2] were 12.2 µM, 0.032 µM and 0.59 µM, respectively.
As for `COC(=O)NCc1ccc(C(=O)Nc2nc(-c3ccccc3)ccc2N)cc1` [Methyl(4-{[(3-amino-6-phenylpyridin-2-yl)amino]carbonyl}benzyl)carbamate], the results for the inhibition at 10 µM in series [3], in series [5] and in series [6] were 29%, 27% and 49%, respectively. Besides, the IC50 in series [4] was > 10 µM; in series [1] (read-out: in vitro HDAC1 IC50), 0.037 µM; in series [2] it was 1.2 µM.
`CC(C)(C)c1ccc(C(=O)Nc2nc(-c3ccccc3)ccc2N)cc1` [N-(3-amino-6-phenyl-2-pyridinyl)-4-(1,1-dimethylethyl) benzamide]: the results for the IC50 in series [1] (setting [8]) and in series [7] were 0.235 µM and 20 µM, respectively.
In the case of `Nc1ccc(-c2ccccc2)nc1NC(=O)c1ccccc1` [N-(3-amino-6-phenylpyridin-2-yl)benzamide], in series [1] (setting [8]), the IC50 stood at 1.16 µM.
On to `Nc1ccc(-c2ccccc2)nc1NC(=O)c1ccc(CNC(=O)OCc2ccccn2)cc1` [Pyridin-2-ylmethyl(4-{[(3-amino-6-phenylpyridin-2-yl)amino]carbonyl}benzyl)carbamate], for which the inhibition at 10 µM is 27% in series [3], 24% in series [5] and 47% in series [6]. In addition, the results for the IC50 in series [4], in series [1] (read-out: in vitro HDAC1 IC50) and in series [2] were 2540 µM, 0.035 µM and 0.56 µM, respectively.
Consider `Nc1ccc(-c2ccccc2)nc1NC(=O)c1ccc(CNC(=O)OCc2cccnc2)cc1` [Pyridin-3-ylmethyl[(4-{[(3-amino-6-phenylpyridin-2-yl)amino]carbonyl}phenyl)methyl]carbamate], for which the inhibition at 10 µM in series [3] came out at 46%; in series [5], 55%; in series [6], 54%. Moreover, the IC50 in series [4] was > 30 µM; in series [1] (read-out: in vitro HDAC1 IC50) it was 0.084 µM; in series [2], 0.58 µM.
Regarding `COC(=O)c1ccc(C(=O)Nc2nc(-c3ccccc3)ccc2N)cc1` [benzoic acid, methyl 4-[[(3-amino-6-phenyl-2-pyridinyl)amino]carbonyl]benzoate], the values for the IC50 in series [1] (setting [8]) and in series [7] were 0.195 µM and 20 µM, respectively.
With `CCOC(=O)NCc1ccc(C(=O)Nc2nc(-c3ccccc3)ccc2N)cc1` [ethyl (4-{[(3-amino-6-phenylpyridin-2-yl)amino]carbonyl}benzyl)carbamate], the IC50 in series [1] (setting [9]) stood at 0.011 µM.
`Nc1ccc(-c2ccccc2)nc1NC(=O)c1ccc(CNC(=O)Oc2ccccc2)cc1` [phenyl (4-{[(3-amino-6-phenylpyridin-2-yl)amino]carbonyl}benzyl)carbamate]: the IC50 in series [1] (setting [9]) came out at 0.012 µM.
Regarding `Nc1ccc(-c2cccs2)nc1NC(=O)c1ccc(CNC(=O)OCc2cccnc2)cc1` [pyridin-3-ylmethyl {[4-({[3-amino-6-(2-thienyl)pyridin-2-yl]amino}carbonyl)phenyl]methyl}carbamate], the IC50 in series [1] (read-out: in vitro HDAC1 IC50) was found to be 0.056 µM; in series [2], 0.56 µM.
